Assay results as given in BindingDB's records for doi:10.1021/jm801503n (Burnham Institute For Medical Research, 2009).

Key:
[1] = biological target: T1, Mitogen-activated protein kinase 8 (Homo sapiens, UniProt P45983); assay: In Vitro Kinase Assay (LanthaScreen Kinase Assay)
Experimental: Compounds were tested for their ability to inhibit JNK1 phosphorylation of ATF2 in the Time-Resolved Fluorescence Resonance Energy Transfer (TR-FRET) based LanthaScreen kinase assay (Invitrogen). The signal was measured at 520/495 nm emission ratio on a fluorescence plate reader (Victor 2, Perkin-Elmer).

[2] = biological target: T1, Mitogen-activated protein kinase 8; assay: DELFIA Assay (Dissociation Enhanced Lanthanide Fluoro-Immuno Assay)

T1 sequence (P45983 whole entry): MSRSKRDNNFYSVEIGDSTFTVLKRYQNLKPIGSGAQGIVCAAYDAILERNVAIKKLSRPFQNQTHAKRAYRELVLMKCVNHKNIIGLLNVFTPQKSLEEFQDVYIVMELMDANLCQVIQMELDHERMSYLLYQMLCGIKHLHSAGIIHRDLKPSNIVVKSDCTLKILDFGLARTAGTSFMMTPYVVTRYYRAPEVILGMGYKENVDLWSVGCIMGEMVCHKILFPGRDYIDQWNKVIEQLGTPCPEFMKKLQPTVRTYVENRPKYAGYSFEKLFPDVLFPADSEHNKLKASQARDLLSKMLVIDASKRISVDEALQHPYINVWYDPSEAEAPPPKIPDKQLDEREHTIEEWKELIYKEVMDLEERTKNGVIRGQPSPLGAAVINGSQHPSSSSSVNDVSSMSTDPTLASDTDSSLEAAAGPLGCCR

| IC50 [1] [nM] | IC50 [2] [nM] | IC50 ([2]; pH 7.8, 0 °C) [nM] | Structure (SMILES) |
| --- | --- | --- | --- |
| 700 | 239 |  | Nc1nnc(Sc2ncc([N+](=O)[O-])s2)s1 [2-amino-1,3,4-thiadiazole, 9] |
| 84000 |  |  | O=C(Nc1nnc(Sc2ncc([N+](=O)[O-])s2)s1)c1ccc(F)cc1 [2-amino-1,3,4-thiadiazole, 10] |
| > 100000 |  |  | c1ccc(CSc2nnc(SCc3ccccc3)s2)cc1 [dithioether 1,3,4-thiadiazole, 8a] |
| > 100000 |  |  | Fc1ccc(CSc2nnc(SCc3ccc(F)cc3)s2)cc1 [dithioether 1,3,4-thiadiazole, 8b] |
| > 100000 |  |  | COc1ccc(CSc2nnc(SCc3ccc(OC)cc3)s2)cc1 [dithioether 1,3,4-thiadiazole, 8c] |
| 84000 | 100 |  | O=C(O)c1cnc(Sc2nnc(Sc3ncc(C(=O)O)s3)s2)s1 [dithioether 1,3,4-thiadiazole, 8g] |
|  | 39000 | 95 | CC(C)(C)c1ccc(-n2c(O)nnc2Sc2ncc([N+](=O)[O-])s2)cc1 [triazole, 3a] |
|  | 1800 | 225 | O=c1[nH]nc(Sc2ncc([N+](=O)[O-])s2)n1-c1ccc(F)cc1 [triazole, 3c] |
|  | 4300 | 105 | COc1cc(OC)cc(-n2c(Sc3ncc([N+](=O)[O-])s3)n[nH]c2=O)c1 [triazole, 3e] |
|  | 1000 | 43 | COc1ccc(-n2c(Sc3ncc([N+](=O)[O-])s3)n[nH]c2=O)cc1OC [triazole, 3f] |
|  | 2700 | 48 | O=[N+]([O-])c1cnc(Sc2nnc(O)n2-c2cccc3ccccc23)s1 [triazole, 3g] |
|  | 2400 | 85 | COc1ccc(OC)c(-n2c(Sc3ncc([N+](=O)[O-])s3)n[nH]c2=O)c1 [triazole, 3h] |
|  | 2000 | 130 | O=c1[nH]nc(Sc2ncc([N+](=O)[O-])s2)n1-c1ccc(OC(F)(F)F)cc1 [triazole, 3i] |
|  | 6600 |  | O=[N+]([O-])c1cnc(Sc2nnc(O)n2-c2ccc(F)c(F)c2)s1 [triazole, 3k] |
|  | 84000 | 626 | O=c1[nH]nc(Sc2ncc([N+](=O)[O-])s2)n1-c1cccc(F)c1 [triazole, 3l] |
|  | 16000 | 118 | COc1cccc(-n2c(O)nnc2Sc2ncc([N+](=O)[O-])s2)c1 [triazole, 3m] |
|  | 2900 | 160 | O=[N+]([O-])c1cnc(Sc2nnc(O)n2-c2cccc(C(F)(F)F)c2)s1 [triazole, 3o] |
|  | 3000 | 75 | O=[N+]([O-])c1cnc(Sc2nnc(O)n2-c2ccc(C(F)(F)F)cc2)s1 [triazole, 3p] |
|  | 25000 | 56 | O=[N+]([O-])c1cnc(Sc2nnc(O)n2C2CCCCC2)s1 [triazole, 3q] |
|  | 2000 | 83 | Cn1cccc1-c1nnc(Sc2ncc([N+](=O)[O-])s2)n1-c1ccc(Cl)cc1Cl [triazole, 7b] |
|  | 13600 | 57 | O=[N+]([O-])c1cnc(Sc2nnc(-c3cccc4ccccc34)n2Cc2ccco2)s1 [triazole, 7d] |
|  | 3100 | 122 | O=[N+]([O-])c1cnc(Sc2nnc(-c3ccncc3)n2-c2ccccc2)s1 [triazole, 7f] |
|  | 100000 | 131 | Cn1c(Cc2nc(-c3cnccn3)[n-][o+]2)nnc1Sc1ncc([N+](=O)[O-])s1 [triazole, 7g] |

| Structure (SMILES) | IC50 [1] [nM] | IC50 [2] [nM] | IC50 ([2]; pH 7.8, 0 °C) [nM] |
| --- | --- | --- | --- |
| O=[N+]([O-])c1cccc(CSc2nnc(SCc3cccc([N+](=O)[O-])c3)s2)c1 [dithioether 1,3,4-thiadiazole, 8d] | > 100000 |  |  |
| O=[N+]([O-])c1ccc(CSc2nnc(SCc3ccc([N+](=O)[O-])cc3)s2)cc1 [dithioether 1,3,4-thiadiazole, 8e] | > 100000 |  |  |
| O=[N+]([O-])c1cnc(Sc2nnc(Sc3ncc([N+](=O)[O-])s3)s2)s1 [dithioether 1,3,4-thiadiazole, 8f] | 800 | 187 |  |
| O=c1[nH]nc(Sc2ncc([N+](=O)[O-])s2)n1-c1ccc([N+](=O)[O-])cc1 [triazole, 3j] |  | 400 | 86 |
